# According to patent US10081655B2, “Cationic antibacterial composition” (priority 2011, dated 2018):
# Tests used:
# MSSA [1] = assay: MBC by plating; type: cell-based, S. aureus; conditions: against MSSA
# Description: (§1) All cationic antibacterial compounds and control (vancomycin) were assayed in a micro-dilution broth format. Stock solutions were made by serially diluting the compounds using autoclaved Millipore water or broth media. The antibacterial activity of the compounds was determined against Methicillin sensitive S. aureus (MSSA), Methicillin resistant S. aureus (MRSA), vancomycin sensitive Enterococcus faecium (VSE), vancomycin resistant Enterococcus faecium (VRE), and E. coli. Bacteria, to be tested, were grown for about 10 h in the suitable media, MSSA and MRSA were grown in Yeast-dextrose broth (about 1 g of beef extract, about 2 g of yeast extract, about 5 g of peptone and about 5 g of NaCl in about 1000 mL of sterile distilled water (pH-7)). For solid media, about 5% agar was used along with above mentioned composition. E. coli was cultured in Luria Bertani broth (about 10 g of tryptone, about 5 g of yeast extract, and about 10 g of NaCl in 1000 mL of sterile distilled water, pH −7). VSE and VRE were cultured in Brain Heart Infusion broth (Himedia). The bacterial samples were freeze dried and stored at about −80° C. About 5 μl of these stocks were added to about 3 ml of the nutrient broth and the culture was grown for about 6 h at about 37° C. prior to the experiments. This 6 h grown culture gives about 10^9 cfu/mL for MSSA and MRSA, while it was about 10^8 cfu/mL for E. coli, 10^9 cfu/mL for both VSE and VRE and this was determined by spread plating method. The 6 h grown culture was diluted to give effective cell concentration of about 10^5 cfu/mL which was then used for determining MIC.
# (§2) Compounds were serially diluted, in sterile water (2 fold dilution is employed) in a way that the working concentration was about 10 μM for MSSA MRSA, and VSE while for VRE and E. coli it was about 100 μM. About 50 μL of these serial dilutions were added to the wells of 96 well plate followed by the addition of about 150 μL of bacterial solution. The plates were then incubated at about 37° C., 150 rpm in the incubator and O.D at 600 nm was recorded at an interval of about 10 h and about 24 h using TECAN (Infinite series, M200 pro) Plate Reader. Each concentration had triplicate values and the whole experiment was done at least twice and the MIC value was determined by taking the average of triplicate O. D. values for each concentration and plotting it against concentration. The data was then subjected to sigmoidal fitting. From the curve the MIC value was determined, as the point in the curve where the O.D. was similar to that of control having no bacteria.
# (§3) MBC values were determined by plating about 50 μl of the solution and later counting the colonies after their development.
# E. coli [2] = assay: MBC by plating; type: cell-based
# Description: as §1, §2, §3
# [3] = tested on: Vancomycin restant S. aureus (Clinical isolate, MMC-20, VanA & VanB); assay: MIC, broth dilution method in Mueller-Hinton broth; type: cell-based; conditions: VRSA
# Description: For vancomycin resistant staphylococcus aureus (VRSA; clinical isolate MMC-20), the MIC of compounds was determined by broth dilution method using Mueller-Hinton broth (MHB), as recommended by the National Committee for Clinical Laboratory Standards. About 5×10^4 bacterial cells in MHB culture were treated with different concentrations of compounds, and shaken for 16 h at 37° C. The minimum concentration at which there was no visible turbidity was taken as the MIC of that compound.
# [4] = tested on: Methicillin sensitive S. aureus (MTCC 737); assay: MIC, micro-dilution broth; type: cell-based
# Description: as §1, §2
# [5] = tested on: Vancomycin sensitive E. faecium (ATCC 19634); assay: MIC, micro-dilution broth; type: cell-based
# Description: as §1, §2
# E. coli [6] = assay: MIC, micro-dilution broth; type: cell-based
# Description: as §1, §2
# [7] = tested on: Vancomycin resistant E. faecium (VanA, ATCC 51559); assay: MIC, micro-dilution broth; type: cell-based
# Description: as §1, §2
# [8] = tested on: Methicillin resistant S. aureus (ATCC 33591); assay: microbe, parasite or virus in culture; type: cell-based
# Description: For solid media, about 5% agar was used along with above mentioned composition. […] VSE and VRE were cultured in Brain Heart Infusion broth (Himedia). […] The 6 h grown culture was diluted to give effective cell concentration of about 10^5 cfu/mL which was then used for determining MIC.
# About 50 μL of these serial dilutions were added to the wells of 96 well plate followed by the addition of about 150 μL of bacterial solution. […] Each concentration had triplicate values and the whole experiment was done at least twice and the MIC value was determined by taking the average of triplicate O. D. values for each concentration and plotting it against concentration. The data was then subjected to sigmoidal fitting.
# [9] = tested on: Human Red Blood Cells (RBC); assay: Hemolytic assay; type: cell-based; conditions: Erythrocyte, 1 h, about one hour at about 37° C., read-out: EC50 (hemolysis)
# Description: Fresh human blood was collected under aseptic conditions in heparinised vacutainers. vancomycin derivatives are serially diluted, in sterile water (about 2 fold dilution is employed) in a way that the working concentration is about 100 μM. Heparinised blood was centrifuged down at about 3500 rpm for about 5 min in order to separate Red Blood Cells and blood plasma. RBC's are then washed couple of times with PBS pH-7.4 and suspended in PBS such that the final concentration of RBC was about 5 vol %. About 150 μL of this is mixed with about 50 μL of serially diluted compound in 96 well plate. The plate was then incubated at about 37° C. for about one hour. Later, the plate was centrifuged down at about 3500 rpm for about 5 min. The lysed RBC releases haemoglobin which was present in the supernatant. The supernatant thus was pipetted out into another fresh 96 well plate and the absorbance was measured at about 540 nm.
# Percentage of hemolysis was determined as (A−A0)/(Atotal−A0)×100, where A is the absorbance of the test well, A0 the absorbance of solution without compound, and Atotal the absorbance of 100% hemolysis wells (with Triton X-100), all at 540 nm.
# MRSA [10] = assay: MBC by plating; type: cell-based, S. aureus; conditions: Staphylococcus aureus; against MRSA
# Description: as §1, §2, §3
# MRSA [11] = assay: Time-kill assay; type: cell-based, S. aureus; conditions: 1×MIC, 6×MIC, 12×MIC, 0-3 h
# Description: The bactericidal activity was assessed by the kinetics or the rate at which it affects the killing action of the compound. Briefly MRSA grown in Yeast-Dextrose broth. […] Bacterial suspension containing specified concentrations of the compound along with negative control (which contains only 0.9% Saline) was incubated at 37° C. with shaking. Aliquots (20 μl) were removed from the cultures at 0, 1, 2 and 3 h and were serially diluted 10-fold in 0.9% saline and plated onto sterile Yeast-Dextrose agar medium. The number of viable cells was determined by plating the 10-fold serial dilution of each sample onto Yeast-dextrose agar medium. Plates were then incubated for 24 h at 37° C., CFU was counted and the total bacterial log10 CFU/ml was determined.
# MSSA [12] = assay: Cytoplasmic membrane depolarization assay (diSC3(5)); type: cell-based, S. aureus; conditions: concentration as high as 40 μM
# Description: Midlog phase bacterial cells were harvested, washed with about 5 mM HEPES and about 5 mM glucose and resuspended in about 5 mM glucose, about 5 mM HEPES buffer and about 100 mM KCl solution in 1:1:1 ratio (about 10^8 cfu/ml). Measurements were made in a cuvette containing about 2 ml of bacterial suspension and about 2 μM diSC3(5). The fluorescence of the dye was monitored for about 10 min (MSSA) to about 20 min (E. coli) at R.T. spectrofluorometer at excitation wavelength of about 622 nm and emission wavelength of about 670 nm. Dye uptake, and resultant self quenching, was modulated by the membrane potential. After reaching the maximum uptake of the dye by bacteria, which was indicated by a minimum in dye fluorescence, (after about 10 min for S. aureus and about 20 min for E. coli) compounds (4 and 7) and control were added to the cells, and the decrease in potential was monitored by the increase in fluorescence for further about 10 min.
# Cytotoxicity assay (MTT) = type: cell-based; conditions: human, HeLa cells (cervical cancer cells), about 24 h
# Description: Cytotoxity of compounds 4 and 7 was determined against HeLa cell line following well known MTT assay. Cells were grown in DMEM at about 37° C. in a humidified-air atmosphere (about 5% CO2/95% air) in DMEM complete medium, supplemented with about 10% heat inactivated Fetal Bovine Serum and about 100 units/mL penicillin G, about 100 µg/mL streptomycin. Cells were seeded into 96 well plate and kept under the above mentioned conditions till they attained about 80% confluency. Compounds were serially diluted, in sterile water (2 fold dilution is employed) in a way that the working concentration was 100 μM. 50 μL of these dilutions were added to the cells and the volume was made up to 200 μL using DMEM medium. Cells were kept under observation for about 24 h. Later the medium was removed, cells were washed thoroughly with PBS and about 100 μL of MTT solution (about 5 mg/mL) was added to the wells. After about 3 h the MTT was removed, cells were lysed using DMSO and the plate was read at about 570 nm. One containing no compound (untreated cell) and other with about 10 vol % Triton-X 100 solution were also used. Percentage of cell survival was calculated using the formula: (Atreated cells−Atriton-X cells)/(Auntreated cell−Atriton-X cells)×100
# A plot of % of survival against concentration of compound was plotted using Origin Pro software.
compound,measurement,setting,value
CN[C@H](CC(C)C)C(=O)N[C@H]1C(=O)N[C@@H](CC(N)=O)C(=O)N[C@H]2C(=O)N[C@H]3C(=O)N[C@H](C(=O)N[C@H](C(=O)NCCCN(C)C)c4cc(O)cc(O)c4-c4cc3ccc4O)[C@H](O)c3ccc(c(Cl)c3)Oc3cc2cc(c3O[C@@H]2O[C@H](CO)[C@@H](O)[C@H](O)[C@H]2O[C@H]2C[C@](C)(N)[C@H](O)[C@H](C)O2)Oc2ccc(cc2Cl)[C@H]1O [Compound 1],MBC,MSSA [1],1.25 µM
same,MBC,E. coli [2]; against E. coli,50 µM
same,MIC,[3]; clinical isolate MMC-20,0.53 µM
same,MIC,"[4]; MSSA, S. aureus MTCC 737",0.62 µM
same,MIC,"[5]; VSE, E. faecium ATCC 19634",0.63 µM
same,MIC,E. coli [6]; against E. coli,50 µM
same,MIC,"[7]; VRE, E. faecium VanA ATCC 51559",>100 µM
same,MIC,"[8]; MRSA, ATCC 33591",0.61 µM
"CCCCCCCCCCCCCC[N+](C)(C)CCCNC(C)=O [Compound 14, N′-Acetyl N-tetradecyl N,N dimethyl 1,3 propanediamine]",MBC,E. coli [2]; against E. coli,>100 µM
same,MIC,E. coli [6]; against E. coli,>100 µM
CN[C@H](CC(C)C)C(=O)N[C@H]1C(=O)N[C@@H](CC(N)=O)C(=O)N[C@H]2C(=O)N[C@H]3C(=O)N[C@H](C(=O)N[C@H](C(=O)O)c4cc(O)cc(O)c4-c4cc3ccc4O)[C@H](O)c3ccc(c(Cl)c3)Oc3cc2cc(c3O[C@@H]2O[C@H](CO)[C@@H](O)[C@H](O)[C@H]2O[C@H]2C[C@](C)(N)[C@H](O)[C@H](C)O2)Oc2ccc(cc2Cl)[C@H]1O [Vancomycin],EC50,[9],> 100 µM
same,MBC,"MSSA [1]; Staphylococcus aureus, MSSA",~2.5 µM
same,MBC,MSSA [1]; listed as Control,2.5 µM
same,MBC,MRSA [10],2.5 µM
same,killing kinetics (in words),MRSA [11],relatively slow killing or bacteriostatic effect
same,membrane depolarization,MSSA [12],remained ineffective
same,MBC,E. coli [2]; Escherichia coli,> 100 µM
same,MBC,"E. coli [2]; against E. coli, listed as Control",>100 µM
same,MIC,[3]; Staphylococcus aureus,> 86 µM
same,MIC,"[4]; Staphylococcus aureus, MSSA / MTCC737",0.63 µM
same,MIC,"[5]; Enterococcus faecium, ATCC19634",0.6 µM
same,MIC,E. coli [6]; Escherichia coli,80 to 100 µM
same,MIC,"[7]; Enterococcus faecium, ATCC 51559 / VRE",> 100 µM
same,EC50 at 24 h,Cytotoxicity assay (MTT),> 100 µM
same,MIC,"[8]; Staphylococcus aureus, ATCC 33591 / MRSA",0.63 µM
